{"source": "patent US20260137682A1", "about": "“METHOD FOR TREATING PNEUMOCONIOSIS” (Beijing Tide Pharmaceuticals Co., Ltd., priority 2022, published 2026)", "assay_type_in_all_cases": "in vivo", "key": {"silicosis model mice [1]": {"system": "silicosis model mice", "experiment": "Silicotic nodule scoring (Masson's Trichrome staining, King's five-point scale) in lung of silicosis model mice", "settings": "28 days; for silica-induced nodule formation and collagen fiber deposition: oral, Masson's Trichrome staining; for Silicotic Nodule Score (Mean ± SEM): oral gavage, score 0 to 5, model group 1.08 ± 0.27", "procedure": "(§1) After acclimatization, 6-8-week-old male C57BL/6J mice were intratracheally instilled 40 μL of SiO2 suspension (600 mg/kg) on Day 1 (D1) to establish the silicosis model. On the same day (D1), the animals were randomly divided into 3 groups based on body weight and administered either the vehicle (model group) or Compound 007 (100 mg/kg or 150 mg/kg, once daily) via oral gavage for 28 consecutive days. A normal control group was also established, intratracheally instilled 40 μL of saline on D1 and orally administered sterile water.\nLung tissues from all mice were collected, sectioned, and subjected to Masson's Trichrome staining and H&E staining for silicotic nodule scoring and inflammation scoring. Silicotic nodule scoring was performed using the King's five-point scale [Zhujie Cao, et al., Acta Pharmacologica Sinica, 2021], where the severity of silicotic nodules in lung tissue was scored from 0 to 5, with higher scores indicating more severe nodulation. H&E pathological scoring followed Szapiel's inflammation scoring criteria, where the degree of inflammatory cell infiltration in lung tissue was scored from 0 to 3, with higher scores indicating greater inflammation in the lung tissue (0: no inflammation or alveolitis: 1: mild, mononuclear cell infiltration with thickened alveolar septa, localized involvement, pleural lesions involving less than 20% of the lung, and well-preserved alveolar structure; 2: moderate, more extensive alveolitis involving 20%-50% of the lung, primarily pleural lesions; 3: severe, diffuse alveolitis involving over 50% of the lung, occasionally with mononuclear cell infiltration in the alveoli and interstitium and/or some hemorrhagic areas within the alveoli)."}, "silicosis model mice [2]": {"system": "silicosis model mice", "experiment": "Pulmonary function indices in SiO2-induced silicosis model mice", "settings": "oral, 28 days, 2 h after final administration, vs model group", "procedure": "as §1\nTwo hours after the final administration, mouse pulmonary function indices were measured."}, "TGF-β": {"system": "TGF-β", "experiment": "TGF-β detection in BALF of silicosis model mice", "settings": "oral, 28 days, vs model group", "procedure": "as §1\nAfter the administration was completed, the animals were euthanized, and bronchoalveolar lavage fluid (BALF) was collected from randomly selected animals in each group for TGF-β detection."}, "silicosis model mice [3]": {"system": "silicosis model mice", "experiment": "Mortality during 28-day dosing in silicosis model mice", "settings": "100 mg/kg or 150 mg/kg once daily, oral gavage, 28 consecutive days", "procedure": "as §1"}, "silicosis model mice [4]": {"system": "silicosis model mice", "experiment": "Inflammation scoring (H&E staining, Szapiel's criteria) in lung tissue of silicosis model mice", "settings": "oral gavage, 28 days, score 0 to 3, model group 2.22 ± 0.28", "procedure": "as §1\nLung tissues from all mice were collected, sectioned, and subjected to Masson's Trichrome staining and H&E staining for silicotic nodule scoring and inflammation scoring. Silicotic nodule scoring was performed using the King's five-point scale [Zhujie Cao, et al., Acta Pharmacologica Sinica, 2021], where the severity of silicotic nodules in lung tissue was scored from 0 to 5, with higher scores indicating more severe nodulation. […]"}}}
{"smiles": "Cn1c(C(=O)N2CC(F)(F)C2)cc2ccc(-c3nccc(Nc4ccc(-c5cn[nH]c5)cc4)n3)cc21", "note": "[Compound 007]", "values": [{"measurement": "silica-induced nodule formation and collagen fiber deposition", "setting": "silicosis model mice [1]; 100 mg/kg daily", "value": "reduced"}, {"measurement": "Silicotic Nodule Score (Mean ± SEM)", "setting": "silicosis model mice [1]; 100 mg/kg once daily", "value": "0.32 ± 0.06"}, {"measurement": "silica-induced nodule formation and collagen fiber deposition", "setting": "silicosis model mice [1]; 150 mg/kg daily", "value": "reduced"}, {"measurement": "Silicotic Nodule Score (Mean ± SEM)", "setting": "silicosis model mice [1]; 150 mg/kg once daily", "value": "0.35 ± 0.09"}, {"measurement": "inspiratory capacity", "setting": "silicosis model mice [2]; 100 mg/kg daily, p<0.05", "value": "significantly increased"}, {"measurement": "respiratory system elastance", "setting": "silicosis model mice [2]; 100 mg/kg daily, p<0.05", "value": "decreased"}, {"measurement": "respiratory system resistance", "setting": "silicosis model mice [2]; 100 mg/kg daily, p<0.05", "value": "reduced"}, {"measurement": "inspiratory capacity", "setting": "silicosis model mice [2]; 150 mg/kg daily, p<0.01", "value": "significantly increased"}, {"measurement": "respiratory system elastance", "setting": "silicosis model mice [2]; 150 mg/kg daily, p<0.05", "value": "decreased"}, {"measurement": "respiratory system resistance", "setting": "silicosis model mice [2]; 150 mg/kg daily, p<0.05", "value": "reduced"}, {"measurement": "TGF-β levels in BALF", "setting": "TGF-β; 100 mg/kg daily, p<0.001", "value": "significantly reduced"}, {"measurement": "TGF-β levels in BALF", "setting": "TGF-β; 150 mg/kg daily, p<0.0001", "value": "significantly reduced"}, {"measurement": "mortality during the dosing period", "setting": "silicosis model mice [3]", "value": "No mortality was observed"}, {"measurement": "Inflammation Score (Mean ± SEM)", "setting": "silicosis model mice [4]; 100 mg/kg once daily", "value": "1.22 ± 0.15"}, {"measurement": "Inflammation Score (Mean ± SEM)", "setting": "silicosis model mice [4]; 150 mg/kg once daily", "value": "1.22 ± 0.22"}]}
